The supplement of paper PMC8612539
In brackets after ≈: the same amount, converted by molar mass.

Tested on: Histophilus somni
Assay: minimum inhibitory concentration (MIC)
Protocol: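 Broth microdilution MIC (Sensititre BOPO7F bovine plate, CLSI methods) of 19 antimicrobials against field isolates of P. multocida, M. haemolytica, H. somni (deep nasopharyngeal swabs) and E. coli, Enterococcus spp. (rectal swabs) from weaned dairy heifers. Incubation 16-24 h at 35 C. MIC is the lowest concentration preventing visible growth. Values with <= or > lie at the tested range limits. Trimethoprim-sulfamethoxazole is given as the trimethoprim component of a 1:19 mixture.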

CCCNC[C@]1(O)[C@H](C)O[C@@H](O[C@H]2[C@H](C)[C@@H](O[C@@H]3O[C@H](C)C[C@H](N(C)C)[C@H]3O)[C@](C)(O)C[C@@H](C)CN[C@H](C)[C@@H](O)[C@](C)(O)[C@@H](CC)OC(=O)[C@@H]2C)C[C@@]1(C)OC [Tulathromycin]
Conditions | minimum inhibitory concentration [µg/mL]
isolate (source animal id): 3 | ≤ 8
isolate (source animal id): 4 | ≤ 8
isolate (source animal id): 7 | ≤ 8
isolate (source animal id): 14 | ≤ 8
isolate (source animal id): 15 | ≤ 8
isolate (source animal id): 17 | ≤ 8
isolate (source animal id): 18 | ≤ 8
isolate (source animal id): 20 | ≤ 8
isolate (source animal id): 23 | ≤ 8
isolate (source animal id): 45 | ≤ 8
isolate (source animal id): 53 | ≤ 8
isolate (source animal id): 83 | ≤ 8
isolate (source animal id): 88 | ≤ 8
isolate (source animal id): 92 | 16 (≈ 19.8 µM)
isolate (source animal id): 93 | ≤ 8
isolate (source animal id): 99 | ≤ 8
isolate (source animal id): 100 | 16 (≈ 19.8 µM)
isolate (source animal id): 105 | ≤ 8
isolate (source animal id): 107 | ≤ 8
isolate (source animal id): 108 | ≤ 8
isolate (source animal id): 109 | ≤ 8
isolate (source animal id): 110 | 16 (≈ 19.8 µM)
isolate (source animal id): 117 | ≤ 8
isolate (source animal id): 121 | ≤ 8
isolate (source animal id): 123 | ≤ 8
isolate (source animal id): 124 | ≤ 8
isolate (source animal id): 127 | ≤ 8
isolate (source animal id): 128 | ≤ 8
isolate (source animal id): 130 | 16 (≈ 19.8 µM)
isolate (source animal id): 132 | ≤ 8
isolate (source animal id): 135 | ≤ 8
isolate (source animal id): 140 | ≤ 8
isolate (source animal id): 141 | ≤ 8
isolate (source animal id): 142 | > 64
isolate (source animal id): 144 | ≤ 8
isolate (source animal id): 146 | 16 (≈ 19.8 µM)
isolate (source animal id): 147 | > 64
isolate (source animal id): 151 | ≤ 8
isolate (source animal id): 153 | 16 (≈ 19.8 µM)
isolate (source animal id): 154 | > 64
isolate (source animal id): 156 | > 64
isolate (source animal id): 157 | 16 (≈ 19.8 µM)
isolate (source animal id): 176 | ≤ 8
isolate (source animal id): 183 | ≤ 8
isolate (source animal id): 186 | ≤ 8
isolate (source animal id): 196 | ≤ 8
isolate (source animal id): 198 | ≤ 8
isolate (source animal id): 200 | 16 (≈ 19.8 µM)
isolate (source animal id): 206 | ≤ 8
isolate (source animal id): 208 | ≤ 8
isolate (source animal id): 210 | ≤ 8
isolate (source animal id): 212 | ≤ 8
isolate (source animal id): 215 | ≤ 8
isolate (source animal id): 216 | 16 (≈ 19.8 µM)
isolate (source animal id): 218 | ≤ 8
isolate (source animal id): 219 | ≤ 8
isolate (source animal id): 224 | ≤ 8
isolate (source animal id): 228 | ≤ 8
isolate (source animal id): 230 | ≤ 8
isolate (source animal id): 233 | ≤ 8
isolate (source animal id): 238 | ≤ 8
isolate (source animal id): 239 | ≤ 8
isolate (source animal id): 241 | ≤ 8
isolate (source animal id): 242 | ≤ 8
isolate (source animal id): 243 | ≤ 8
isolate (source animal id): 245 | ≤ 8
isolate (source animal id): 246 | ≤ 8
isolate (source animal id): 247 | ≤ 8
isolate (source animal id): 248 | ≤ 8
isolate (source animal id): 250 | ≤ 8
isolate (source animal id): 251 | ≤ 8
isolate (source animal id): 252 | ≤ 8
isolate (source animal id): 254 | ≤ 8
isolate (source animal id): 258 | ≤ 8
isolate (source animal id): 259 | ≤ 8
isolate (source animal id): 262 | ≤ 8
isolate (source animal id): 264 | ≤ 8
isolate (source animal id): 265 | ≤ 8
isolate (source animal id): 266 | ≤ 8
isolate (source animal id): 267 | ≤ 8
isolate (source animal id): 269 | ≤ 8
isolate (source animal id): 271 | ≤ 8
isolate (source animal id): 272 | ≤ 8
isolate (source animal id): 274 | ≤ 8
isolate (source animal id): 276 | ≤ 8
isolate (source animal id): 278 | ≤ 8
isolate (source animal id): 280 | ≤ 8
isolate (source animal id): 281 | ≤ 8
isolate (source animal id): 283 | ≤ 8
isolate (source animal id): 288 | ≤ 8
isolate (source animal id): 291 | ≤ 8
isolate (source animal id): 292 | ≤ 8
isolate (source animal id): 296 | ≤ 8
isolate (source animal id): 306 | ≤ 8
isolate (source animal id): 336 | 16 (≈ 19.8 µM)
isolate (source animal id): 337 | 16 (≈ 19.8 µM)
isolate (source animal id): 341 | ≤ 8
